From patent US11179294B2, “Preservative removal from eye drops” (TearClear Corp., priority 2019, dated 2021)
Counter-ions that a name gives are not always drawn. Each block holds one compound with its values, some of them ahead of it.

Legend:
Type in all cases: physicochemical
[1] = Bimatoprost API/BAK uptake drop test through tip loaded with recrystallized stearic acid flakes (Table 8)
Protocol: Bimatoprost ophthalmic solution (20 mL) was formulated by combining 0.0027 g of Citric Acid Anhydrous (Alfa Aesar L #X16D073), 0.0536 g of Sodium phosphate dibasic, heptahydrate (Fisher chemical L #187384) and 0.1619 g of Sodium Chloride (Fisher chemical L #177082) to 20 g stock solution (2NB70.1) of 300 ppm Bimatoprost and 50 ppm BAK.
Bimatoprost formulation (3 mL), was placed into a 5 mL dropper bottle. Recrystallized Stearic acid flakes (0.116 g) was loaded into a proprietary testing tip. The tip was then placed on the dropper bottle containing the solution.
In a simulated usage, two drops are dispensed and diluted according to the proper method for HPLC analysis. Additional pairs of drops are dispensed at intervals no less than 1 hour apart. A standard consisting of the starting material is taken and diluted according to the specific HPLC method. Then each pair of drops was analyzed on the HPLC. The uptake is determined by comparing the area counts of the starting solution to the area counts of the drop. Bimatoprost has a similar linear signal range as BAK in this formulation so all data is collected from a single drop test. […] In successive drops, the BAK is not detected (e.g., is undetectable, is below a detectable threshold based on UV absorption, etc.).

[2] = Lifitegrast API uptake drop test through tip loaded with 50/50 polypropylene/stearic acid blend (Table 9); conditions: 5.0% Lifitegrast formulation, 0.328 g 50/50 blend in tip
Protocol: (§1) A Lifitegrast ophthalmic solution (e.g., Xiidra mimic in the table) was prepared, consisting of 5.0% Lifitegrast (BOC Sciences Lot B19V08071), 2.0% Sodium Phosphate Dibasic Anhydrous (J. T. Baker Lot 0000236665), 0.5% Sodium thiosulfate pentahydrate (Fisher Chemical Lot 181801), and 0.005% BAK Aldrich 12063 (Lot #BCBW4741).
(§2) Three mL of the Lifitegrast formulation was placed into a 5 mL dropper bottle. 50/50 polypropylene/steric acid blend (0.328 g) was loaded into a proprietary testing tip. The tip was then placed on the dropper bottle containing the solution.
(§3) In a simulated usage, two drops are dispensed and diluted according to the proper method for HPLC analysis. Due to the relatively high concentration of Lifitegrast, 2 separate drops tests were done for the active pharmaceutical ingredient and BAK. A standard consisting of the starting material is taken and diluted according to the specific HPLC method. Then each pair of drops was analyzed on the HPLC. The uptake is determined by comparing the area counts of the HPLC peaks of the starting solution to the area counts of the drop.

[3] = Timolol Maleate/Brimonidine tartrate API uptake drop test through tip loaded with 20/80 polypropylene/stearic acid powder (Table 6); conditions: solution 2NB62, 0.32 g stearic acid/polypropylene powder in tip, HPLC area counts of drops vs starting solution
Protocol: (§4) A Timolol Maleate/Brimonidine tartrate ophthalmic solution was prepared (e.g., 2NB62, a Combigan analogue, etc) according to Table 5. The following were added to a 500 mL bottle: 2.151 g of Sodium Phosphate dibasic heptahydrate (Fisher Chemical L #187384), 0.432 g of Sodium Phosphate monobasic monohydrate (Fisher Chemical L #188731), 0.505 g of 0.991% BAK solution (Lot 2NB61), 0.202 g of Brimonidine Tartrate (BOC Sciences L #BV19V06171), and 0.681 g of Timolol Maleate (BOC Sciences L #BS19V04062). Ultra-pure water (100.017 g) of was added and stirred on a rotary shaker overnight to dissolve. Three mL of the solution, 2NB62, was placed into a 5 mL dropper bottle. Stearic acid/polypropylene powder (0.32 g) was loaded into a proprietary testing tip. The tip was then placed on the dropper bottle containing the solution.
In a simulated usage, two drops are dispensed and diluted according to the proper method for HPLC analysis. Additional pairs of drops are dispensed at intervals no less than 1 hour (hr) apart. A standard consisting of the starting material is taken and diluted according to the specific HPLC method. Then each individual drop is analyzed on the HPLC. The uptake is determined by comparing the area counts from the HPLC peaks of the starting solution to the area counts of the drop.

[4] = Timolol Maleate/Brimonidine tartrate BAK uptake drop test through tip loaded with 20/80 polypropylene/stearic acid powder (Table 7); conditions: solution 2NB62 through 20/80 blend tip
Protocol: as §4
In a simulated usage, two drops are dispensed and diluted according to the proper method for HPLC analysis. […] Then each individual drop is analyzed on the HPLC. The uptake is determined by comparing the area counts from the HPLC peaks of the starting solution to the area counts of the drop.
A separate, parallel drop test was performed using the same materials to test BAK uptake. […] In successive drops, the BAK is not detected (e.g., is undetectable, is below a detectable threshold based on UV absorption, etc.).

[5] = Lifitegrast BAK uptake drop test through tip loaded with 50/50 polypropylene/stearic acid blend (Table 10)
Protocol: as §1, §2, §3

[6] = 300 ppm Bimatoprost / 50 ppm BAK formulation, 0.116 g recrystallized stearic acid flakes in tip

Compound: Brimonidine Tartrate
- API concentration after passing through the powder in the tip [3]: neither the concentration of Timolol nor Brimonidine are significantly affected

Compound: CC(C)(C)NC[C@H](O)COc1nsnc1N1CCOCC1 [Timolol, Timolol Maleate]
- API concentration after passing through the powder in the tip [3]: neither the concentration of Timolol nor Brimonidine are significantly affected

Compound: Benzalkonium chloride [BAK]
- BAK in successive drops ([4]; drops after the first, UV detection): not detected
- BAK in first drop, share of starting BAK ([4]; first drop): about 5%
- BAK in later drops ([5]; drops after the first, Lifitegrast formulation through 50/50 blend tip): not detectable
- BAK in first drop ([5]; first drop, Lifitegrast formulation with 0.005% BAK through 50/50 blend tip): only a small amount
- BAK after passing through the flakes [1, 6]: eliminated
- BAK in successive drops ([1]; successive drops, recrystallized stearic acid flakes tip): not detected

The next lines start with the values.

- Bimatoprost concentration after passing through the flakes [1, 6]: not significantly reduced
Compound: CCNC(=O)CCC/C=C\C[C@@H]1[C@@H](/C=C/[C@@H](O)CCc2ccccc2)[C@H](O)C[C@@H]1O [Bimatoprost]

- Lifitegrast passage through the tip [2]: not hindered
Compound: CS(=O)(=O)c1cccc(C[C@H](NC(=O)c2c(Cl)cc3c(c2Cl)CCN(C(=O)c2ccc4ccoc4c2)C3)C(=O)O)c1 [Lifitegrast]
